Tests used:
[1] = tested on: Lp(a) production in HepG2^K17 cells; test: LPA3 screen: inhibition of Lp(a) production in transfected HepG2 cells, Lp(a) in media by ELISA; format: cell-based; settings: Homo sapiens, 8 hours, 0.3 to 50 μM compound, Lp(a) normalized for total protein, read-out: Lp A3 IC50
Outline: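 HepG2 cells stably expressing apo(a) 17-kringle construct, seeded overnight, then exposed to 0.3 to 50 μM compound for 8 h at 37 °C. Lp(a) secreted into media measured by ELISA and normalized to total cellular protein.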

[2] = target: apolipoprotein(a), [apo(a)], apolipoproteinB-100, [apoB-100], coupling reaction that generates Lp(a) (Homo sapiens, UniProt P04114+P08519); test: LPABC screen: lipoprotein(a) biochemical coupling assay, Lp(a) content by ELISA; settings: recombinant apo(a) 17-kringle (293 cell media) + HepG2 conditioned media, 67 minutes, 37° C., 0.3 to 50 μM compound; read-out: Lp ABC IC50
Outline: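 Conditioned medium from 293 cells stably expressing 17-kringle apo(a), diluted 1:3 in PBS and prewarmed 10 min at 37 °C, mixed with compound (added as 0.3–50 μM PBS solution) then 1:3-diluted HepG2 conditioned medium as apoB-100 source. Incubated 67 min at 37 °C; Lp(a) formed quantified by ELISA.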

| SMILES | IC50 [1] | IC50 [2] |
| --- | --- | --- |
| COc1ccc(N(Cc2ccccc2-c2ccccc2)C(=O)c2cccc(Sc3ccccc3)c2)cc1OC [Example 136, N-Biphenyl-2-ylmethyl-N-(3,4-dimethoxy-phenyl)-3-phenylsulfanyl-benzamide] | 33.8 µM | > 50 µM |
| COc1ccc(N(Cc2ccccc2-c2ccccc2)C(=O)c2ccccc2SCc2ccccc2)cc1OC [Example 137, 2-Benzylsulfanyl-N-biphenyl-2-ylmethyl-N-(3,4-dimethoxy-phenyl)-benzamide] | 9.8 µM | > 50 µM |
| CCC[S+]([O-])c1ccccc1C(=O)N(Cc1ccccc1-c1ccccc1)c1ccc(OC)cc1 (centres unmarked) [Example 138, N-Biphenyl-2-ylmethyl-N-(4-methoxy-phenyl)-2-(propane-1-sulfinyl)-benzamide] | 7 µM | > 15 µM |
| COc1ccc(N(Cc2ccccc2-c2ccccc2)C(=O)c2ccccc2[S+]([O-])C(C)C)cc1 (centres unmarked) [Example 139, N-Biphenyl-2-ylmethyl-N-(4-methoxy-phenyl)-2-(propane-2-sulfinyl)-benzamide] | 3.5 µM | > 15 µM |
| O=C(c1ccccc1[S+]([O-])c1ccccc1)N(Cc1ccccc1-c1ccccc1)c1ccc(Cl)cc1 (centres unmarked) [Example 140, 2-Benzenesulfinyl-N-biphenyl-2-ylmethyl-N-(4-chloro-phenyl)-benzamide] | 24.9 µM | > 15 µM |
| CCC[S+]([O-])c1ccccc1C(=O)N(Cc1ccccc1-c1ccccc1)c1ccc(OC)c(OC)c1 (centres unmarked) [Example 141, N-Biphenyl-2-ylmethyl-N-(3,4-dimethoxy-phenyl)-2-(propane-1-sulfinyl)-benzamide] | 6 µM | > 50 µM |
| COc1ccc(N(Cc2ccccc2-c2ccccc2)C(=O)c2ccccc2[S+]([O-])C(C)C)cc1OC (centres unmarked) [Example 142, N-Biphenyl-2-ylmethyl-N-(3,4-dimethoxy-phenyl)-2-(propane-2-sulfinyl)-benzamide] | 7 µM | > 50 µM |

— US6780883B2, “Amide inhibitors of microsomal triglyceride transfer protein” (Warner-Lambert Company, priority 1998, dated 2004)
